Results taken from a melting point compilation (Tetko et al.; mined from patent text by program, amines drawn as free bases though some values may be those of a salt).

Structure (SMILES) | melting point [°C]
O=Cc1ccc(CO)cn1 | 75
O=C1C=CC(O)(c2cc3ccccc3n2S(=O)(=O)c2ccc(F)cc2)C=C1 | 165 to 166
COC1(c2cc(OCc3ccc4c(c3)OCCC4=NO)nc(N)n2)CCOCC1 | 224 to 228
CCC(=O)CN1C(=O)C2(COc3cc4c(cc32)OCCO4)c2ccccc21 (stereo unspecified) | 182 to 183
COc1cc(OC)c(-c2nc(C)c(-c3cccnc3)[nH]2)cc1Br | 246 to 248
CCCCCCCCCCCCSCCC(=O)OC(CSCCCCCCCCCCCC)CSCCCCCCCCCCCC | 31 to 32
CN(CC(=O)c1cccn1Cc1ccccc1[N+](=O)[O-])Cc1ccccc1 | 103 to 105
CC(C)(C)C(=O)c1c[nH]c2ncc(-c3cccc(N4CC5(COC5)C4)c3)nc12 | 260 to 262
N#CC(C#N)=C1N(CCCCN2CCCCC2)CCN1CCN1CCCCC1 | 78 to 79
COc1ccc(-c2cc(N(Cc3ccc(OCc4ccccc4)cc3)n3cnnc3)ccc2C#N)cc1 | 219 to 221
CC(C)(NC(=O)c1cc2c(n(CC3CCCCC3)c1=O)CCCCCC2)C(=O)N(N)S(C)(=O)=O | 177 to 178
COc1cc(Nc2nccc(-c3ccc(N4CCCC(CO)C4)nc3)n2)cc(OC)c1OC (stereo unspecified) | 183 to 184
O=C(Nc1ccc(N(CCCl)CCCl)cc1)Nc1c2ccccc2nc2ccccc12 | 184 to 186
NC(=O)[C@H]1CN(c2ccc(C3CCOCC3)c(F)c2)C(=O)O1 | 153 to 156
CCC1c2cc3c(cc2C(C=Cc2ccc(NC(C)=O)cc2)=NN(C(C)=O)C1C)OCO3 (stereo unspecified) | 137 to 140
O=P(c1ccccc1)(c1ccccc1)N1C[C@@H](P(c2ccccc2)c2ccccc2)C[C@H]1CP(c1ccccc1)c1ccccc1 | 130
O=C1NC(=O)C(S(=O)(=O)c2ccc(Cl)cc2)S1 (stereo unspecified) | 143 to 144
COC(=O)c1c(C)c(-c2cc(OC)c(Cl)cc2F)nn1C | 135 to 137
CC(C)Cn1cccc1C(N)=S | 126 to 128
Nc1nc2c(s1)CCN(CC=Cc1ccc(F)cc1)CC2 | 142 to 146

Structure (SMILES) | melting point [°C]
CC(c1ccccc1)N1CCC(n2cnc3ccc(Cl)cc3c2=O)CC1 (stereo unspecified) | 160 to 162
Nc1nc(C(F)(F)F)c(CN2C(=O)C3(COc4cc5c(cc43)OCO5)c3ccccc32)s1 (stereo unspecified) | 165 to 167
O=C1N(Cc2ccc(O)cc2)c2ccccc2C12COc1cc3c(cc12)CCO3 (stereo unspecified) | 226 to 227
Nc1nc(S(N)=O)c2[nH]cnc2n1 (stereo unspecified) | > 250
CC(Oc1ccc(C(C)(C)C)cc1C(C)(C)C)C(=O)O (stereo unspecified) | 106 to 111
CC(C)C[C@H](NC(=O)[C@@H]1CCC(=O)N1C(=O)OCc1ccccc1)C(=O)OC(C)(C)C | 130 to 131
CCCCCCCCCCCCCCCCCC(=O)OC1CC(C)(C)N(OC(C)=O)C(C)(C)C1 | 63 to 70
NS(=O)(=O)c1cccc(NC(=O)c2cnn3c(C(F)F)cc(-c4ccc(Cl)c(Cl)c4)nc23)c1 | 306
N#Cc1sc2c(Cl)cccc2c1Cl | 124 to 128
C=C1CC2(CC)C(=O)CC(OC(C)=O)C2C2CCC3=CC(=O)CCC3C12 (stereo unspecified) | 176
O=C(NCCOc1ccc(CC(Oc2ccc(F)c(F)c2)C(=O)O)cc1)c1ccc(-c2ccccn2)cc1 (stereo unspecified) | 135 to 136
CC(C)(C)c1cc(-c2nc(C(Cl)(Cl)Cl)no2)cc(C(C)(C)C)c1O | 100 to 102
CCC1CC(=S)N(c2ccc3oc(=O)c(N4C(=O)C(CC)CC4=S)cc3c2)C1=O (stereo unspecified) | 128 to 131
Cc1cn(-c2cc(NC(=O)c3ccc(Cl)c(C#Cc4ccc(NC5CC5)nn4)c3)cc(C(F)(F)F)c2)cn1 | 213 to 215
CSc1nc(Br)cc(Oc2cccc(C(F)(F)F)c2)n1 | 70 to 71
N#Cc1ccsc1-c1[nH]c(=O)c(-c2ccccc2)cc1C(=O)O | 255 to 257
CN1CCN(c2cccc3ccc(Nc4ncccc4[N+](=O)[O-])cc23)CC1 | 128 to 129
CCC(=O)c1nc(C)c(C)nc1C | 65 to 67
COc1cccc(CN2CCN(CC(=O)N3CC=C(c4cccc(C(F)(F)F)c4)n4cnc(C#N)c43)CC2)c1 | 131 to 133
N#Cc1snc(Cl)c1Cl | 84.5 to 85

Structure (SMILES) | melting point [°C]
c1ccc(Cn2ccc3ccccc32)cc1 | 43 to 45
Cc1cc(N2CCN(c3c(C)c(C)c4c(c3C)CC(C)(C)O4)CC2)ccc1Cl | 168 to 171
CC(=O)NC1Cc2ccc([N+](=O)[O-])cc2C1 (stereo unspecified) | 143 to 144
O=C(O)C1=Cc2cc(Cl)c(Oc3ccc(C(=O)O)cc3Cl)cc2OC1C(F)(F)F (stereo unspecified) | > 300
O=C(O)c1cc(N=Nc2cc(C(=O)O)cc(SCc3ccccc3)c2C(=O)c2ccccc2)c(C(=O)c2ccccc2)c(SCc2ccccc2)c1 | 218 to 220
N#CSCC(Br)=C(Br)CBr | 89 to 91
CN1CCCC1=NC(=O)Nc1c(Br)cc(Br)cc1Br | 165 to 168
COc1cccc(Oc2ccc([C@@H]3CCCN4CCS(=O)(=O)N=C34)cc2)c1 | 139 to 140
Cc1ccc(S(=O)(=O)OCC2Cc3c[nH]c4cccc(c34)C(=O)N2)cc1 (stereo unspecified) | 175 to 178
CCOP(=O)(CCN1CCC(N(C)S(=O)(=O)c2ccc(Nc3nccc(Nc4ccc(F)cc4)n3)cc2)CC1)OCC | 95 to 100
COc1ccccc1N1CCN(CC(O)COc2ccccc2-c2ccnc(N)n2)CC1 (stereo unspecified) | 147 to 149
C#CCN(C(C)=O)c1cccc(-c2ccnc3c(C#N)cnn23)c1 | 193 to 195
C=CCONC(=O)c1nc(-c2ccc(Cl)c(OC)c2F)nc(N)c1OC | 148 to 150
CCc1nc(/C=C/c2cn(-c3ccccc3)nc2OCc2ccc(OCc3nc(-c4cccc(C(=O)NS(C)(=O)=O)c4)oc3C)c(OC)c2)cs1 | 211 to 213
CC(C)CCN1C(=O)C(NC(=O)Nc2cccc(-c3nnn[nH]3)c2)C(=O)N(c2ccccc2)c2ccccc21 (stereo unspecified) | 220 to 222
Cn1cnc(S(=O)(=O)Nc2cc(C(c3cc(F)ccc3F)S(=O)(=O)c3ccc(Cl)cc3)c(Cl)cn2)c1 (stereo unspecified) | 294 to 296
CC(O)=C1C(=O)CC(c2ccccc2Cl)CC1=O (stereo unspecified) | 100 to 101
O=C(O)CCCCCCCCCCCCCCCCCCI | 70 to 71.5

Other lines, results leading:

melting point [°C] | Structure (SMILES)
102 | COC(=O)c1ccc(O)c([C@H](CCN(C(C)C)C(C)C)c2ccccc2)c1
194 to 196 | CCOc1ccccc1-c1nc2cc3nc[nH]c3cc2c(=O)[nH]1
140 | Cc1cc(C(O)CN(C)Cc2cc3c(=O)c(C(=O)NCc4ccc(Cl)cc4)cn(C)c3o2)oc1C (stereo unspecified)
78 to 79 | CCOC(=O)CCCCCCCn1c(-c2ccccc2)c(-c2ccccc2)[nH]c1=O
> 268 | Oc1ccc(-c2cnc3cnc(-c4ccccc4O)nc3c2)cc1
140 to 141 | CCCc1c(OCCCOc2ccc3ccc(OCC(=O)O)cc3c2C(C)=O)ccc(C(C)=O)c1O
167 to 169 | CNC(=O)OC1CC2(CCN(CCCC(=O)c3ccc(F)cc3)C2)c2ccccc21 (stereo unspecified)
97 to 99 | COc1ccc(C(=CC#N)c2cc(OC)c(OC)c(OC)c2)cc1N
144 to 147 | COc1ccc(Sc2cc(C(=O)O)c[nH]2)cc1
205 to 207 | Oc1cccc(-c2ccc3c(-c4cccnc4)coc3c2)c1
265 to 268 | COc1cc(O)c2c(=O)c3c(oc2c1)oc1cc(O)ccc13
201 to 202 | Cc1noc(-c2cc(O)c(O)c([N+](=O)[O-])c2)n1
114 to 115 | CCCc1c(O)ccc2ccc(C(=O)OCC)cc12
93 to 95 | O=C(Cc1ccc(C(F)(F)F)cc1)c1ccc(F)cc1
133 to 134 | CCOC(=O)C(C#N)c1ncccc1[N+](=O)[O-] (stereo unspecified)
220 to 222 | CNC(=O)c1ccc(-c2ccc3nnn(Cc4ccc5ncccc5c4)c3n2)cc1
188 to 190 | Cc1ccc(CC(CS)C(=O)Nc2cccc(C(=O)O)c2)cc1 (stereo unspecified)
167 to 169 | COC(=O)c1ccc(CN2C(=O)C3(COc4cc5c(cc43)OCCO5)c3ccccc32)cc1 (stereo unspecified)
119 to 121 | CCCc1nc(S(=O)(=O)Nc2ccccc2Br)nn1-c1ccccc1

melting point [°C] | Structure (SMILES)
159 to 161 | COc1ccc(CC(SC(C)=O)C(N)=O)cc1C(=O)NCc1ccc(C(F)(F)F)cc1 (stereo unspecified)
356 to 359 | O=C(O)CCNc1c2ccc(Cl)cc2nc2c(=O)[nH][nH]c(=O)c12
114 to 115 | Cc1oc(-c2ccccc2)nc1COc1cccc(CON=C(CCCCC(=O)O)c2ccccc2)c1
86 to 88 | COc1ccc(-c2nc3c(OC)cccc3s2)cc1
158 to 162 | NC(=O)c1cccc(-c2ccnc(C(=O)N(O)Cc3ccccc3)c2)c1
75 to 76 | CC(=O)CCc1ccc(I)cc1
190 to 193 | CN(C)C(=O)Cc1c(C(=O)c2ccccc2)[nH]c2cc(Cl)ccc12
> 250 | O=c1ccc(S(=O)(=O)c2cc3ccc(Cl)cc3[nH]2)n[nH]1
50 to 60 | CCCCOC(=O)c1ccc(C(=O)c2ccccc2)cc1
84.5 to 86 | CCC(=O)OCC1OC(n2cc(F)c(=O)n(C(=O)c3cccc(OC)c3OC)c2=O)CC1OC(=O)CC (stereo unspecified)
129 to 131 | CC(C)(C)c1ccc(/C=N/OCCOc2ccc(C(=O)O)c(OC(=O)c3ccccc3)c2)cc1
127 to 128 | COc1ccc(CNc2ccc(F)c(Cl)c2)cc1OC
114 to 116 | CCCCOc1ccc2c(c1)C(N(C)S(C)(=O)=O)=CC(C)(C)O2
163 to 167 | CCOc1cc(OC(C)C)ccc1-c1nc(-c2ccc(OC(C)C)cc2O)nc(-c2ccc(OC(C)C)cc2O)n1
107 to 108 | CCOC(=O)c1c(O)c(Br)c(Br)n1Cc1ccccc1
118 to 119 | O=C(c1ccc(Cl)c([N+](=O)[O-])c1)c1nccs1
154 | CCC1=NNC(C)=C(C(=O)OCc2ccccc2)C1c1cccc([N+](=O)[O-])c1 (stereo unspecified)
207 to 208 | CN(c1cc(OCCCS(C)(=O)=O)cc2cc(C(=O)O)[nH]c12)S(=O)(=O)c1ccccn1
146 to 147 | O=C1c2ccccc2COc2ccc(CCC(=O)N(O)C3CCCCC3)cc21
